Data taken from article PMC11394742, “Discovery of Indole–Thiourea Derivatives as Tyrosinase Inhibitors: Synthesis, Biological Evaluation, Kinetic Studies, and In Silico Analysis” (International Journal of Molecular Sciences, 2024).
“And” between values parts separate entries of the source, which are not always exact repeats. Equal entries are not always repeated.

Experiments:
[1] = DPPH free radical-scavenging assay; conditions: 0.2 mM DPPH in EtOH, 15 min, room temperature, 515 nm; read-out: SC50 ± SD (DPPH radical scavenging)
Description: The DPPH radical-scavenging activity was evaluated using Blois’ method. A 0.2 mM solution of DPPH in ethanol (EtOH) was prepared as the working reagent. Each sample (20 μL) was introduced into a 96-well plate, followed by the addition of 180 μL of the DPPH solution. […] The SC50 value, representing the concentration required to scavenge 50% of the DPPH radicals, was determined for each sample. Each measurement was performed in triplicate, and the mean value was reported. Ascorbic acid served as the positive control throughout the experiment.

[2] = target: T1, mushroom tyrosinase (Agaricus bisporus, UniProt C7FF04); experiment: Tyrosinase inhibition assay; format: biochemical; conditions: L-tyrosine substrate, 37 °C 10 min, absorbance 490 nm; mean ± SEM
T1 construct: purchased Sigma Chemicals (St. Louis, MO, USA)
Description: In the enzymatic assay, a reaction mixture was prepared containing 0.1 M potassium phosphate buffer (pH 6.8), 2 mM L-tyrosine, and 2500 units of tyrosinase. Samples at various concentrations were dispensed as 20 µL aliquots into a 96-well plate. Each well received 130 µL of substrate solution (buffer and L-tyrosine), followed by 5 µL of tyrosinase and 45 µL of buffer solution.

[3] = Stability in aqueous solution (HPLC main peak area); format: physicochemical; conditions: room temperature, 275 nm
Description: Table S1. Gradient elution of the mobile phase for the synthetic compounds using HPLC.
The mobile phase consisted of Solution A (0.1% acetic acid in water) and Solvent B
(acetonitrile), with gradient elution employed throughout the analysis. The flow rate was
Time Solution (A) % Solution (B) %
Table S2. The stability of the synthesized compounds in aqueous solution.
Each compound (2.0 mg) was dissolved in an appropriate volume of water to achieve
an approximate concentration of 1-2 mg/mL. The solutions were then subjected to
ultrasonic treatment, filtered, and analyzed. During stability testing, varying degrees of
To facilitate analysis, these
samples were reconstituted with additional water or treated ultrasonically, filtered, and
absorption at approximately 275 nm, which was selected for detection. The integration
method employed was based on the minimum area approach to accurately determine the
retention time (min) and main peak area (%) of all synthesized compounds. The prepared
samples were stored at room temperature, and their stability in aqueous solution was
evaluated at 0, 2, 4 days, and 2 months using the aforementioned analytical method.
Compounds 0 day 2 day 4 days 2 months RT Area RT Area RT Area RT Area

[4] = target: T2, mTYR (Agaricus bisporus, UniProt C7FF04); experiment: Kinetic mechanism analysis (Lineweaver–Burk plots); format: biochemical, mushroom
T2 construct: purchased Sigma Chemicals (St. Louis, MO, USA)
Description: Due to the potent inhibition of mushroom tyrosinase by compound 4b, kinetic studies were conducted using Lineweaver–Burk double reciprocal plots to elucidate its inhibitory mechanisms. […] concentrations (0 μM, 3 μM, 6 μM, and 12 μM) of the indole derivative 4b in the presence of varying L-tyrosine concentrations (0.1, 0.2, 0.4, 0.6, 0.8, 1 mM) were employed for the kinetic analyses. The Lineweaver–Burk plots generated four distinct lines with different slopes corresponding to each concentration of the derivative. […] Specifically, the KM values were 1.515, 7.846, 15.740, and 23.586 mM at 0, 3, 6, and 12 μM of 4b, respectively.
The kinetic experiment was intended to elucidate the inhibitory behavior of compound 4b against tyrosinase. Four different doses of 4b (0, 3, 6, and 12 µM) were investigated to characterize its inhibition pattern with respect to tyrosinase activity. Various concentrations of L-tyrosine substrate ranging from 0.1 to 1 mM were employed across all experiments. The initial incubation time and reading period mirrored those outlined in the anti-tyrosinase inhibition method. The maximum initial velocity (V₀) was determined from the linear phase of absorbance measurements taken over 5 min following the addition of the enzyme solution. The inhibition mode was further delineated using a Lineweaver–Burk plot, where the reciprocal of velocities (1/V) was plotted against the reciprocal of substrate concentrations utilized.

[5] = tested on: B16F10 melanoma cells; conditions: cited from earlier work
[6] = tested on: tyrosinase; conditions: natural product; cited from earlier work

T1 sequence (C7FF04 1-392): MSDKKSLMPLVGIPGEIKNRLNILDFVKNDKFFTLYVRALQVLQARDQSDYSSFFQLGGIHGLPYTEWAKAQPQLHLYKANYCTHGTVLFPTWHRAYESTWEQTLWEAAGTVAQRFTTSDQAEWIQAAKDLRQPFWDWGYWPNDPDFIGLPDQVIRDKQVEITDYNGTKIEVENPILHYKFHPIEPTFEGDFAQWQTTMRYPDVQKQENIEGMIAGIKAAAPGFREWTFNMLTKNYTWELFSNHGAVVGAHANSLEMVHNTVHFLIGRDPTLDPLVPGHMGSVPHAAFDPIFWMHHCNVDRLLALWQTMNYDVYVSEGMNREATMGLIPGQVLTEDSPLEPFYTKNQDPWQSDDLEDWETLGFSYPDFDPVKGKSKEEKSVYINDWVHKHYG
T2 sequence (C7FF04 1-392): as above

Structure (SMILES)	EC50 [1] [µM]	IC50 [2] [µM]	Main peak area (HPLC), stability in aqueous solution ([3]; 0 day) [%]	Main peak area (HPLC), stability in aqueous solution ([3]; 2 months)	Main peak area (HPLC), stability in aqueous solution ([3]; 2 day) [%]	Main peak area (HPLC), stability in aqueous solution ([3]; 4 days) [%]	Inhibition mode ([4]; Lineweaver–Burk plots, versus L-tyrosine)	Ki ([4]; at 6 μM of 4b) [µM]	Ki ([4]; at 12 μM of 4b) [µM]	Vmax ([4]; consistent across 0-12 μM 4b, L-tyrosine 0.1-1 mM) [mM/min]	melting point [°C]	Effect on B16F10 melanoma cells [5]	Tyrosinase inhibition activity [6]
O=C1O[C@H]([C@@H](O)CO)C(O)=C1O [Ascorbic acid, reference compound]	37.9 ± 0.3	–	–	–	–	–	–	–	–	–	–	–	–
O=C(O)Cc1c[nH]c2ccccc12 [indole-3-acetic acid]	–	–	–	–	–	–	–	–	–	–	–	inhibitory effects	–
O=Cc1c[nH]c2ccccc12 [indole-3-carbaldehyde]	–	–	–	–	–	–	–	–	–	–	–	–	significant tyrosinase inhibition activity
O=C(O)c1c[nH]c2ccccc12 [indole-3-carboxylic acid]	–	–	–	–	–	–	–	–	–	–	–	inhibitory effects	–
OCCc1c[nH]c2ccccc12 [indole-3-ethanol]	–	–	–	–	–	–	–	–	–	–	–	–	significant tyrosinase inhibition activity

More lines, main results first:

EC50 [1] [µM]	IC50 [2] [µM]	Main peak area (HPLC), stability in aqueous solution ([3]; 0 day) [%]	Main peak area (HPLC), stability in aqueous solution ([3]; 2 months)	Main peak area (HPLC), stability in aqueous solution ([3]; 2 day) [%]	Main peak area (HPLC), stability in aqueous solution ([3]; 4 days) [%]	Inhibition mode ([4]; Lineweaver–Burk plots, versus L-tyrosine)	Ki ([4]; at 6 μM of 4b) [µM]	Ki ([4]; at 12 μM of 4b) [µM]	Vmax ([4]; consistent across 0-12 μM 4b, L-tyrosine 0.1-1 mM) [mM/min]	melting point [°C]	Structure (SMILES)	Effect on B16F10 melanoma cells [5]	Tyrosinase inhibition activity [6]
–	7.9 ± 4.07	97.61	91.27%	95.84	95.76	–	–	–	–	–	NC(=S)N/N=C/c1c[nH]c2ccccc12 [Compound 4a, (E)-2-((1H-indol-3-yl)methylene)hydrazine-1-carbothioamide]	–	–
544.3 ± 1.5	5.9 ± 2.47	97.21	91.69%	97.10	97.07	competitive	0.0568	0.0206	0.0135	–	NC(=S)N/N=C/c1c[nH]c2ccc(F)cc12 [Compound 4b, (E)-2-((5-fluoro-1H-indol-3-yl)methylene)hydrazine-1-carbothioamide]	–	–
659.2 ± 0.5	13.2 ± 1.68	96.24	91.89%	96.04	95.74	–	–	–	–	212 to 214	NC(=S)N/N=C/c1c[nH]c2ccc(Cl)cc12 [Compound 4c, (E)-2-((5-chloro-1H-indol-3-yl)methylene)hydrazine-1-carbothioamide]	–	–
769 ± 2.6	14.9 ± 2.86	97.79	91.28%	97.41	96.80	–	–	–	–	215 to 217	NC(=S)N/N=C/c1c[nH]c2ccc(Br)cc12 [Compound 4d, (E)-2-((5-bromo-1H-indol-3-yl)methylene)hydrazine-1-carbothioamide]	–	–
603.4 ± 1	30.1 ± 1.77	98.00	94.97%	97.87	96.87	–	–	–	–	–	COc1ccc2[nH]cc(/C=N/NC(N)=S)c2c1 [Compound 4e, (E)-2-((5-methoxy-1H-indol-3-yl)methylene)hydrazine-1-carbothioamide]	–	–
> 1000	127 ± 2.85	97.80	92.18%	96.99	96.45	–	–	–	–	188 to 190	CCn1cc(/C=N/NC(N)=S)c2ccccc21 [Compound 4f, (E)-2-((1-ethyl-1H-indol-3-yl)methylene)hydrazine-1-carbothioamide]	–	–
493.5 ± 0.7	155.5 ± 1.07	97.47	95.20%	94.12	94.58	–	–	–	–	199 to 201	Cn1cc(/C=N/NC(N)=S)c2ccccc21 [Compound 4g, (E)-2-((1-methyl-1H-indol-3-yl)methylene)hydrazine-1-carbothioamide]	–	–
340.2 ± 3.1	163 ± 3.81	96.18	90.15%	95.87	95.83	–	–	–	–	203 to 205	COc1ccc2c(c1)c(/C=N/NC(N)=S)cn2C [Compound 4h, (E)-2-((5-methoxy-1-methyl-1H-indol-3-yl)methylene)hydrazine-1-carbothioamide]	–	–
> 1000	46.3 ± 3.11	90.17	65% and 65.06%	88.52	88.22	–	–	–	–	220 to 222	Cn1cc(/C=N/NC(N)=S)c2cc(Br)ccc21 [Compound 4i, (E)-2-((5-bromo-1-methyl-1H-indol-3-yl)methylene)hydrazine-1-carbothioamide]	–	–
275.7 ± 2.7	103 ± 2.72	97.37	90.86%	97.13	96.75	–	–	–	–	247 to 249	COC(=O)c1ccc2[nH]cc(/C=N/NC(N)=S)c2c1 [Compound 4j, Methyl(E)-3-((2-carbamothioylhydrazineylidene)methyl)-1H-indole-5-carboxylate]	–	–
24.6 ± 3.7	43.3 ± 3.46	96.00	94.13%	95.85	95.32	–	–	–	–	261 to 263	NC(=S)N/N=C/c1c[nH]c2ccc(O)cc12 [Compound 4k, (E)-2-((5-hydroxy-1H-indol-3-yl)methylene)hydrazine-1-carbothioamide]	–	–
